One series has as its system C57BL/6J mice. Nature of the series: Repeated dose toxicity study, 14-day subacute toxicity. The series is classed as in vivo. The note with it: 60 mg/kg i.p. for 14 days. As for the experimental part:
According to the results of the 5-day maximum tolerated dose determination study, FORMULA I dose was determined as 60 mg/kg for the next 14-day subacute toxicity study. In this study, C57BL/6J mice (n=10) were treated with 60 mg/kg dose of FORMULA I intraperitoneally for 14 days. Control mice (n=5) were only treated with vehicle. Following this, aforementioned procedure (5-day maximum tolerated dose determination study) has been conducted in the same way.

A short description of series [1]: Plasma pharmacokinetics in mice. The series is classed as in vivo, mouse. The procedure: C57BL/6J female mice (n=4 per each time point) were treated with 100 mg/kg single dose of FORMULA I intraperitoneally. Blood samples were collected 0, 0.5, 1, 2, 4, 8, 12 and 24 h after administration of FORMULA I by cardiac puncture under isoflurane anesthesia. Plasma was obtained by centrifugation from heparinized tubes and stored at −80° C. until analysis. Brain tissues were quickly removed and stored at −80° C. for further processing. For assessment of the brain exposure of FORMULA I, levels in this tissue were only determined at 2nd (n=2) and 4th (n=2) hours according to maximum concentrations of the molecule in plasma.
Liquid chromatography coupled to tandem mass spectrometry (LC-MS/MS) was used to obtain high mass accuracy data of the analytes in plasma samples for the determination of FORMULA I and Internal standard (IS) Loratadine. The instrument was operated in full scan mode and ion source parameters were optimised for the analytes. The optimized conditions of the electrospray ionization (ESI) source were as follows: gas temperature, 300° C.; gas flow, 10 L/min; nebulizer pressure, 25 psi; capillary voltage, 5500 V. ESI in the positive ion mode provides the best results for FORMULA I. For MS-MS detection, the protonated molecules were selected as precursor ions and the most abundant fragment ions obtained at collision energy of 22-20 eV were monitored as the product ions for FORMULA I and IS. MS-MS analysis was performed in the selected reaction monitoring (SRM) positive ionization mode, using mass transitions for FORMULA I m/z 472.1→353.4 [collision energy (CE)=22 eV] and Fragmentor 234 V, for IS; m/z 383.2→337.2 (CE=20 eV) and fragmentor 140 V. For the separation of the analytes, a conventional reversed-phase LC separation on C18-bonded silica was used, with Methanol: % 0.1 Formic acid (90:10, v/v) mobile phase. FORMULA I was extracted from plasma samples by using liquid-liquid extraction with Methanol. 10 μL of sample was injected into the LC-MS/MS system.
Peak plasma concentration (Cmax) and time to reach peak plasma concentration (tmax) values were directly obtained from the FORMULA I plasma concentration-time curve. The area under the plasma concentration-time curve from […] was calculated by the trapezoidal method. AUC0-∞ was obtained by addition of the extrapolated part after the last sampling time using standard techniques. Other pharmacokinetic parameters of FORMULA I were calculated by the non-compartmental method. Elimination rate constant (kel) was calculated from the terminal points of FORMULA I plasma concentration-time plot and the slope of this line was equal to kel. Terminal elimination half-life (t½) was calculated by ln-linear approximation of terminal points of the data. t½ and kel were interconverted with the following formula: t1/2=ln 2/kel

[2] abbreviates: female, C57BL/6J, mouse, ip, 100 mg/kg, single dose, plasma.

The record followed here is patent publication US20230104487A1, “11-(4-CHLOROPHENYL)-4-(2,3-DIHYDRO-1H-INDOLE-1-CARBONYL)-3,11-DIMETHYL-5,10,DIOXATRICYCLO[7.4.0.0,2,6,]TRIDECA-1,3,6,8-TETRAEN-13-ONE AND DERIVATIVES AS DESTABILIZER OF CRY1 FOR THE TREATMENT OF CIRCADIAN RHYTHM ASSOCIATED DISEASES AND DISORDERS” (KOC UNIVERSITESI, priority 2019, published 2023).

Like-named read-outs stand apart in the source and are kept apart here.

Consider `Cc1c(C(=O)N2CCc3ccccc32)oc2ccc3c(c12)C(=O)CC(C)(c1ccc(Cl)cc1)O3` (centres unmarked) [FORMULA I, 11-(4-chlorophenyl)-4-(2,3-dihydro-1H-indole-1-carbonyl)-3,11-dimethyl-5,10,dioxatricyclo[7.4.0.0,2,6,]trideca-1,3,6,8-tetraen-13-one], for which the “body temperature (mild hypothermia)” value with C57BL/6J mice (during injections) was 33.7-35.4 °C. In addition, the “highest mean body weight loss” value with C57BL/6J mice (first day following administration) was found to be 3.7%. Also, in series [1] (100 mg/kg, single dose, i.p.), the “time plasma level first detected” value is given as 0.5 h and the “time plasma level still quantifiable” value was determined as 24 h. This compound displayed a kel in series [1] (100 mg/kg, single dose, i.p., plasma) of 0.127 ± 0.01 h⁻¹. In series [1] (setting [2]), the AUC(0-inf) was determined as 5190 ± 3130 ng·h/mL, the Cmax worked out at 1150 ± 506 ng/mL and the Tmax is 2 to 4 h. The half-life in series [1] (female, C57BL/6J, mouse, plasma, intraperitoneal, 100 mg/kg, in vivo, mice, read-out: half-life in blood (converted)) is 360 min. Moreover, the half-life in series [1] (female, C57BL/6J, mouse, plasma, ip, 100 mg/kg, single dose, i.p., plasma, read-out: t1/2 (converted)) is 330 ± 19.8 min. For the same compound, the half-life in blood in series [1] (in vivo, mice) is roughly 6 h.

By AUC(0-inf) is commonly meant the area under the concentration-time curve extrapolated to infinity. The low end stands for less exposure, the high end for more exposure. The Cmax is the highest concentration seen after dosing. What is called Tmax is the time at which the peak concentration occurs.
